# Measured values published in US20260373042A1, “PEPTIDE HAVING ACTIVITY OF IMPROVING STATE OF SKIN, AND USE THEREOF” (CAREGEN CO., LTD., priority 2022, published 2026).
# Key:
# elastin = test: Expression of elastin in NIH3T3 cells, RT-PCR; format: cell-based, mouse; settings: 50 μM or 1000 μM, 24 hours, vs untreated control, FIG. 2, 3C
# Experimental: (§1) In this example, the aim was to confirm the effect of the peptide according to an example on improving endogenous skin aging, including improvement of wrinkles and enhancement of elasticity, etc., by evaluating the expression levels of collagen type 1 (Col1a1), fibronectin, or elastin, which are known components of the dermis.
# (§2) Specifically, NIH3T3 cells were seeded in a 6-well plate at a density of 3×10^5 cells/well and cultured for 24 hours. Next, the cells were washed once with serum-free DMEM media, and 50 μM or 1000 μM of a peptide consisting of an amino acid sequence of SEQ ID NO: 1 was dispensed into 1 mL of the serum-free media, and cultured in a CO2 incubator at 37 °C for 24 hours. Next, the culture was washed twice with PBS, and RNA was isolated from the culture using easy blue (iNtRON, Korea). Using an RT kit (Enzynomics, Korea), 1 μg of the isolated RNA was reverse transcribed to synthesize the respective cDNA. Next, polymerase chain reaction (PCR) was performed using the cDNAs and primers Col1a1, fibronectin, and elastin. Meanwhile, an untreated group was used as a control group, and a group to which TGF-β1 was added (TGF-β1) was used as a positive control group, the nucleotide sequences of the primers used in this example are shown in Table 2 below.
# NIH3T3 cells [1] = test: Proliferation (MTT survival rate) of NIH3T3 mouse fibroblasts; format: cell-based; settings: 50 μM or 100 μM, serum-free DMEM, 72 hours, MTT 540 nm, vs untreated control, FIG. 1A
# Experimental: (§3) In this example, the aim was to confirm the effect of a peptide according to an example on proliferation of skin cells, by evaluating changes in survival rate of NIH3T3 cells, which are mouse fibroblasts, or HaCaT cells, which are human keratinocytes.
# (§4) Specifically, NIH3T3 cells or HaCaT cells were seeded in a 96-well plate at a density of 5×10^3 cells/well and cultured for 24 hours. Next, the cells were washed once with serum-free DMEM media, and 50 μM or 100 μM of a peptide consisting of an amino acid sequence of SEQ ID NO: 1 was dispensed into 200 μL of the serum-free media, and cultured in a CO2 incubator at 37 °C for 72 hours. Next, the culture was washed twice with PBS, and 0.5 mg/ml of MTT (Sigma, Cat. No.: M2003, USA) solution was dispensed into each well. Next, after being shaded from light, it was cultured in a CO2 incubator at 37 °C for 4 hours. Next, the absorbance at 540 nm was measured. In this example, an untreated group was used as the control group, and a group to which insulin-like growth factor was added (IGF) was used as the positive control group.
# fibronectin = test: Expression of fibronectin in NIH3T3 cells, RT-PCR; format: cell-based, mouse; settings: 50 μM or 1000 μM, 24 hours, vs untreated control, FIG. 2, 3B
# Experimental: as §1, §2
# HaCaT cells [2] = test: Reactive oxygen species increased by ultraviolet rays in HaCaT cells (DCFH-DA, flow cytometry); format: cell-based, human; settings: 50 μM or 1000 μM, UV 15 mJ/cm^2, 24 hours after UV, FIG. 7
# Experimental: (§5) In this example, the aim was to confirm the effect of the peptide according to an embodiment on the antioxidant effect in damaged skin, by evaluating the change in the level of reactive oxygen species in skin cells increased by ultraviolet irradiation.
# (§6) Specifically, NIH3T3 cells or HaCaT cells were seeded in a 6-well plate at a density of 5×10^5 cells/well and cultured for 24 hours. Next, the cells were washed once with serum-free DMEM media, and 50 μM or 1000 μM of a peptide consisting of an amino acid sequence of SEQ ID NO: 1 was dispensed into 1 mL of the serum-free media, and cultured in a CO2 incubator at 37 °C for […]. Next, the above culture was transferred to an e-tube, mixed with 1 ml of PBS, and dispensed into a well plate. Next, using a UV irradiator (VILBER LOURMAT, Cat No.: 3102-BSU, France), 8 J/cm^2 ultraviolet rays were irradiated to NIH3T3 cells, and 15 mJ/cm^2 ultraviolet rays were irradiated to HaCaT cells. Next, the PBS in the well plate was removed, 900 μL of the culture medium in which the peptides were dispensed was added, and the plate was cultured in a CO2 incubator at 37 °C for 24 hours. Next, the culture was treated with DCFH-DA (2′,7′-dichlorofluorescin diacetate), wrapped in foil, and cultured in a CO2 incubator at 37 °C for 30 minutes. […] After washing the centrifuged cells with PBS, fluorescence values were measured through flow cytometry (FACS, BD, USA). […]
# NIH3T3 cells [3] = test: Reactive oxygen species increased by ultraviolet rays in NIH3T3 cells (DCFH-DA, flow cytometry); format: cell-based, mouse; settings: 50 μM or 1000 μM, UV 8 J/cm^2, 24 hours after UV, FIG. 6
# Experimental: as §5, §6
# AQP3 = test: Expression of aquaporin-3 (AQP3) in HaCaT cells, RT-PCR; format: cell-based, human; settings: 50 μM or 1000 μM, 24 hours, vs untreated control, FIG. 4, 5B
# Experimental: (§7) In this example, the aim was to confirm the effect of the peptides according to an example on strengthening the skin barrier, by evaluating the expression levels of sirtuin-1 (SIRT-1) or aquaporin-3 (AQP3).
# (§8) Specifically, HaCaT cells were seeded in a 6-well plate at a density of 3×10^5 cells/well and cultured for 24 hours. Next, the cells were washed once with serum-free DMEM media, and 50 μM or 1000 μM of a peptide consisting of an amino acid sequence of SEQ ID NO: 1 was dispensed into 1 mL of the serum-free media, and cultured in a CO2 incubator at 37 °C for 24 hours. Next, the culture was washed twice with PBS, and RNA was isolated from the culture using easy blue (iNtRON, Korea). Using an RT kit (Enzynomics, Korea), 1 μg of the isolated RNA was reverse transcribed to synthesize the respective cDNA. Next, polymerase chain reaction was performed using the cDNAs and primers sirtuin-1 and aquaporin-3. Meanwhile, an untreated group was used as a control group, and a group to which EGF was added (EGF) was used as a positive control group, the nucleotide sequences of the primers used in this example are shown in Table 3 below.
# HaCaT cells [4] = test: Proliferation (MTT survival rate) of HaCaT human keratinocytes; format: cell-based; settings: 50 μM or 100 μM, serum-free DMEM, 72 hours, MTT 540 nm, vs untreated control, FIG. 1B
# Experimental: as §3, §4
# Col1a1 = test: Expression of collagen type 1 (Col1a1) in NIH3T3 cells, RT-PCR; format: cell-based, mouse; settings: 50 μM or 1000 μM, 24 hours, vs untreated control, FIG. 2, 3A
# Experimental: as §1, §2
# SIRT-1 = test: Expression of sirtuin-1 (SIRT-1) in HaCaT cells, RT-PCR; format: cell-based, human; settings: 50 μM or 1000 μM, 24 hours, vs untreated control, FIG. 4, 5A
# Experimental: as §7, §8
substance,measurement,setting,value
DGWNY [SEQ ID NO: 1],expression of elastin,elastin,increased
same,proliferation of fibroblasts,NIH3T3 cells [1],promoted
same,expression of fibronectin,fibronectin,increased
same,level of reactive oxygen species in keratinocytes increased by ultraviolet irradiation,HaCaT cells [2],reduced
same,level of reactive oxygen species in fibroblasts increased by ultraviolet irradiation,NIH3T3 cells [3],reduced
same,expression of AQP3,AQP3,increased
same,proliferation of keratinocytes,HaCaT cells [4],promoted
same,expression of Col1a1,Col1a1,increased
same,expression of SIRT-1,SIRT-1,increased
